Measured values: patent publication US12134784B2, “Method for preparing intestinal tract cell layer derived from pluripotent stem cell” (PUBLIC UNIVERSITY CORPORATION NAGOYA CITY UNIVERSITY, priority 2018, dated 2024)

Columns and labels:
[1] = system: human iPS cell-derived intestinal organoid; experiment: Fibrosis model using intestinal organoid (TNF-α and TGF-β addition); format: cell-based; details: 20 μM inhibitor with 30 ng/mL TNF-α+2 ng/mL TGF-β, 48 hours
Protocol: (A) A protocol for preparation of a fibrosis model. (B) The mRNA expression analysis of an intestinal organoid in the cases of addition of TNF-α+TGF-β and TGF-β inhibitor (SB431542, Repsox). Average±S.D. (n=3). The mRNA expression level of the control was regarded as 1.
(§1) To prepare an inflammatory bowel disease model and a fibrosis model, 30 ng/mL TNF-α and 30 ng/mL TNF-α+2 ng/mL TGF-β were added for 96 hours and 48 hours from Day 34 after completion of differentiation induction, respectively. To suppress these reactions, 100 ng/mL infliximab (anti-TNF-α antibody) for the inflammatory bowel disease model and 20 μM SB431542 or 20 μM Repsox serving as a TGF-β inhibitor, for fibrosis model were added, respectively, for the same length of time as above. Note that, to enhance the function of an intestinal organoid, PD98059, 5-aza-2′-deoxycytidine, A-83-01 and N-[(3,5-difluorophenyl) acetyl]-L-alanyl-2-phenyl-1,l-dimethylethylester-glycine (DAPT) were added from Day 19 after initiation of differentiation induction to the completion of differentiation. The addition effects in these cases were checked.
In order to reproduce fibrosis of a tissue in-vitro, which is developed by chronic inflammation in inflammatory bowel disease, TNF-α and TGF-β, each are reported as a main cause, were added for 48 hours from Day 34 after completion of differentiation induction (FIG. 8A). […]

[2] = system: CYP3A4
[3] = system: CYP3A4; experiment: Inducibility of CYP3A4 in human intestinal organoid differentiated by using a polysaccharide polymer; details: VD3 1 μmol/L, 72 hours
[4] = system: CYP3A4; experiment: CYP3A4 metabolic activity of human intestinal organoid (midazolam, LC-MS/MS); details: 5 μmol/L midazolam, 24 hours; addition of ketoconazole
[5] = system: human iPS cell-derived intestinal organoid; experiment: Inflammatory bowel disease model using intestinal organoid (TNF-α addition); format: cell-based
Protocol: (A) Protocol for preparation of an inflammatory bowel disease model. (B) The mRNA expression analysis of an intestinal organoid in the cases of TNF-α and infliximab addition. Average±S.D. (n=3). The mRNA expression level of the control was regarded as 1. (C) Immunofluorescent staining of an intestinal organoid in the cases of TNF-α and infliximab addition. DAPI: Nuclear staining. Scale bar: 50 μm.
as §1
Whether an inflammatory bowel disease model can be prepared by using an intestinal organoid prepared by a new differentiation induction method was investigated by adding a main cause, i.e., an inflammatory cytokine, TNF-α, from Day 34 after completion of differentiation induction up to 96 hours (FIG. 7A). The expressions of villin and MUC2 gene decreased by addition of TNF-α; however, the expression of TNF-α increased. The decrease/increase in expression was suppressed by addition of an anti-TNF-α antibody, infliximab (FIG. 7B). Subsequently, expressions of a tight junction protein and an apoptosis marker were confirmed by immunofluorescent staining. It was observed that a tight junction structure is destroyed by addition of TNF-α. The number of cells positive to Caspase-3 increased. These changes were not found in an infliximab addition group (FIG. 7C). In inflammatory bowel disease, it is reported that an inflammatory cytokine affects in-vivo intestinal epithelial cells to destroy tight junction, with the result that the number of mucus secretory cells, i.e., goblet cells, decreases.

[6] = 30 ng/mL TNF-α, 96 hours from Day 34

Cc1cccc(-c2[nH]ncc2-c2ccc3ncccc3n2)n1 [Repsox]
decrease/increase in expression of fibrosis markers caused by TNF-α and TGF-β [1]: suppressed

NC(=O)c1ccc(-c2nc(-c3ccc4c(c3)OCO4)c(-c3ccccn3)[nH]2)cc1 [SB431542]
decrease/increase in expression of fibrosis markers caused by TNF-α and TGF-β [1]: suppressed

C=C1/C(=C\C=C2/CCC[C@]3(C)[C@@H]([C@H](C)CCCC(C)(C)O)CC[C@@H]23)C[C@@H](O)C[C@@H]1O [activated vitamin D3, 1α, 25-dihydroxy vitamin D3]
mRNA expression level of CYP3A4 increased [2]: about 1700 fold
metabolic activity of midazolam ([3]; 5 μmol/L midazolam, 24 hours): significantly increased
mRNA expression of CYP3A4 ([3]; compared to control group): significantly induced

CC(=O)N1CCN(c2ccc(OCC3COC(Cn4ccnc4)(c4ccc(Cl)cc4Cl)O3)cc2)CC1 (stereo not drawn) [ketoconazole]
midazolam's metabolic activity (CYP3A4) [4]: significantly inhibited

TNF-α
number of cells positive to Caspase-3 ([5]; 30 ng/mL TNF-α, 96 hours): increased
tight junction structure (immunofluorescent staining) ([5]; 30 ng/mL TNF-α, 96 hours): destroyed
expression of TNF-α [5, 6]: increased
expressions of villin and MUC2 gene [5, 6]: decreased

infliximab: anti-TNF-α antibody
destruction of tight junction structure and increase of Caspase-3 positive cells (immunofluorescent staining) ([5]; 100 ng/mL infliximab with 30 ng/mL TNF-α, 96 hours): not found
decrease/increase in expression (villin, MUC2, TNF-α) caused by TNF-α ([5]; 100 ng/mL infliximab with 30 ng/mL TNF-α, 96 hours from Day 34): suppressed
